Measurements as given in ChEMBL document CHEMBL4251632, “Synthesis and antidepressant-like activity of novel aralkyl piperazine derivatives targeting SSRI/5-HT1A/5-HT7” (Eur J Med Chem, 2018).

What was measured:
[1] = target: Sodium-dependent serotonin transporter (Rattus norvegicus) (UniProt P31652); assay: Inhibition of [3H]serotonin reuptake in rat brain synaptosomes SERT at 10 uM after 15 mins by TopCount scintillation counting method relative to control; format: subcellular
[2] = target: Sodium-dependent serotonin transporter (Rattus norvegicus, UniProt P31652); assay: Inhibition of [3H]serotonin reuptake in rat brain synaptosomes SERT after 15 mins by TopCount scintillation counting method; format: subcellular
Chain of Sodium-dependent serotonin transporter (Rattus norvegicus, UniProt P31652) (P31652 whole entry): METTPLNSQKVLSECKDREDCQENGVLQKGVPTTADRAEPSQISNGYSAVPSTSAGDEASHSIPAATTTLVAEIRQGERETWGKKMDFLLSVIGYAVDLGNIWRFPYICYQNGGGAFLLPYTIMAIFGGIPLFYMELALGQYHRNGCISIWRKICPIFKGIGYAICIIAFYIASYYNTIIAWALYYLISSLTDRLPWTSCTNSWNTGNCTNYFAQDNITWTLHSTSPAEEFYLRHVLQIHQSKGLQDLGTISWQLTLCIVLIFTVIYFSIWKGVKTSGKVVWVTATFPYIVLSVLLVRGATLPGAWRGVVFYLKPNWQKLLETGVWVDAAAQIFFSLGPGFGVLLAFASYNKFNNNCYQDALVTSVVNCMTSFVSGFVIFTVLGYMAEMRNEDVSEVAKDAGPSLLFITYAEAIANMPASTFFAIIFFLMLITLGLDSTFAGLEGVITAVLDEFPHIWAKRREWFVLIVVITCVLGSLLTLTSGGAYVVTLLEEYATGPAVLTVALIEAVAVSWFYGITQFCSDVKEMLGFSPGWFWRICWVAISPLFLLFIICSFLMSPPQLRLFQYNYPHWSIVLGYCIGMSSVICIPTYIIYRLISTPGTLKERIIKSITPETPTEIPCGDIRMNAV

[3] = target: T1, 5-hydroxytryptamine receptor 1A (Homo sapiens) (UniProt P08908); assay: Displacement of [3H]8-OH-DPAT from recombinant human 5-HT1A receptor expressed in HEK293 cell membranes at 10 uM after 60 mins by TopCount scintillation counting method relative to control
T1 sequence (whole entry): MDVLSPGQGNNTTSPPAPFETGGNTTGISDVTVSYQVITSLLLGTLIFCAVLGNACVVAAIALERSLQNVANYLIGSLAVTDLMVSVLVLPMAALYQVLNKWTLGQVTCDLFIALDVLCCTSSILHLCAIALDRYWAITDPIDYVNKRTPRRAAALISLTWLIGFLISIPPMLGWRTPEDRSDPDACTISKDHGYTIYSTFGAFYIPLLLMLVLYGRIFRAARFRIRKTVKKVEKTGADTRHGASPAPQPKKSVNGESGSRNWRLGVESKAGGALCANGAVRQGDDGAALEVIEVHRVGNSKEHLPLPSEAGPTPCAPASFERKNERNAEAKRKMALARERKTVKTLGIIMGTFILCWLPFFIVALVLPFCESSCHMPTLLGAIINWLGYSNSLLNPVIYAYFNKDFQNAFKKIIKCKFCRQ

[4] = target: T2, 5-hydroxytryptamine receptor 7 (Homo sapiens, UniProt P34969); assay: Displacement of [3H]LSD from recombinant human 5-HT7 receptor expressed in CHO cell membranes at 10 uM after 120 mins by TopCount scintillation counting method relative to control
T2 sequence (P34969 whole entry): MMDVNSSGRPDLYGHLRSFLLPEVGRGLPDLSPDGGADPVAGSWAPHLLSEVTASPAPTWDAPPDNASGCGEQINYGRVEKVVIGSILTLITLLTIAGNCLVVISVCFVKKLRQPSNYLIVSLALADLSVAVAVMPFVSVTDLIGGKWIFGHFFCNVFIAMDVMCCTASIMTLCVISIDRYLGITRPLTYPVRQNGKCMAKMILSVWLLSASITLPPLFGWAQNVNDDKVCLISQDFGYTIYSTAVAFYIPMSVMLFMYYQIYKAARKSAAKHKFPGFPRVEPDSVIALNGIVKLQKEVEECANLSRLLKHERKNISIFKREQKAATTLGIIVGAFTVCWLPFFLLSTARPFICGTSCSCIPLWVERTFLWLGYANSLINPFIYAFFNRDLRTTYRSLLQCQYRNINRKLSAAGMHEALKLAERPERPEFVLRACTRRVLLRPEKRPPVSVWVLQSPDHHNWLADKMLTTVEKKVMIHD

[5] = target: Sodium-dependent serotonin transporter (Homo sapiens, UniProt P31645)
Chain of Sodium-dependent serotonin transporter (Homo sapiens, UniProt P31645) (P31645 whole entry): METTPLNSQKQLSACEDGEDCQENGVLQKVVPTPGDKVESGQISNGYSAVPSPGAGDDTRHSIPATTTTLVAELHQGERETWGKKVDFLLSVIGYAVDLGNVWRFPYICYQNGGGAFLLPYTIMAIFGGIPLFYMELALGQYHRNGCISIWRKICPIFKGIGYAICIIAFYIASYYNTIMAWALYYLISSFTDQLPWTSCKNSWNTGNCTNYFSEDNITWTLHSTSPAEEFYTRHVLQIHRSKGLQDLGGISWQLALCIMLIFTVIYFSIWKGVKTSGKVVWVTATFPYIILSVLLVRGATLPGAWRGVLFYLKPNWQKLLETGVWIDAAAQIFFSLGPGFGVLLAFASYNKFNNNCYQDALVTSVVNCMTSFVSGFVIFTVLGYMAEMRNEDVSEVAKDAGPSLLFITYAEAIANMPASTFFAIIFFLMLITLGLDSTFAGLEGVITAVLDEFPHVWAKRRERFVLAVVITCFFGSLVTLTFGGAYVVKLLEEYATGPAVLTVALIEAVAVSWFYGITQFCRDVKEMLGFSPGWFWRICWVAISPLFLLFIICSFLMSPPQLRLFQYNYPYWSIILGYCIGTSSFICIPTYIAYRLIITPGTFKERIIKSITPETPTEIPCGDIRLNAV
Description: Inhibition of serotonin reuptake in SERT (unknown origin)

[6] = target: T3, 5-hydroxytryptamine receptor 1A (Homo sapiens, UniProt P08908); assay: Displacement of [3H]8-OH-DPAT from recombinant human 5-HT1A receptor expressed in HEK293 cell membranes after 60 mins by TopCount scintillation counting method
T3 sequence (P08908 whole entry): T1 sequence (whole entry)

[7] = target: T2, 5-hydroxytryptamine receptor 7; assay: Displacement of [3H]LSD from recombinant human 5-HT7 receptor expressed in CHO cell membranes after 120 mins by TopCount scintillation counting method
[8] = Clearance in rat liver microsomes at 1 uM in presence of NADPH by LC-MS/MS analysis; format: ADME, microsome; conditions: read-out: CLH
in vitro = conditions: rat, liver microsomes
Description: Half life in rat liver microsomes at 1 uM in presence of NADPH by LC-MS/MS analysis

Mus musculus [9] = assay: Antidepressant-like activity in mouse assessed as reduction in immobility time at 40 mg/kg/day, po once daily for 7 days measured for last 4 mins of 6 mins test at 1 hr post last dose by forced swim test relative to control; format: functional; design: scale not given: the % may be the effect or the level left
Mus musculus [10] = assay: Antidepressant-like activity in mouse assessed as reduction in immobility time at 20 mg/kg/day, po once daily for 7 days measured for last 4 mins of 6 mins test at 1 hr post last dose by forced swim test relative to control; format: functional; design: scale not given: the % may be the effect or the level left
Mus musculus [11] = assay: Antidepressant-like activity in mouse assessed as reduction in immobility time at 10 mg/kg/day, po once daily for 7 days measured for last 4 mins of 6 mins test at 1 hr post last dose by forced swim test relative to control; format: functional; design: scale not given: the % may be the effect or the level left
Mus musculus [12] = assay: Antidepressant-like activity in po dosed mouse assessed as reduction in immobility time administered once daily for 7 days measured for last 4 mins of 6 mins test at 1 hr post last dose by forced swim test; format: functional, organism-based
Mus musculus [13] = assay: Antidepressant-like activity in mouse assessed as reduction in immobility time at 40 mg/kg/day, po administered once daily for 7 days measured for 5 mins at 1 hr post last dose by tail suspension test relative to control; format: functional; design: scale not given: the % may be the effect or the level left

Chain of Sodium-dependent serotonin transporter (Rattus norvegicus) (P31652 whole entry): as the sequence (P31652 whole entry) above

IC50 [2] | Ki [6] | Ki [7] | SMILES | inhibition [1] | inhibition [3] | inhibition [4] | microsomal CLint at 1 µM [8] | half-life at 1 µM (in vitro) | further results
2900 nM | – | – | c1ccc(-c2ccccc2N2CCN(CCc3cc4ccccc4o3)CC2)cc1 | > 90% | 97.7% | 96.4% | – | – | –
– | – | – | COc1ccccc1N1CCN(CCCN2CCOc3ccccc32)CC1 | – | – | – | – | – | Ki [5]: 195 nM
– | – | – | COc1ccccc1N1CCN(CCc2coc3ccccc23)CC1 | 110% | 98.5% | 85.6% | – | – | –
7.6 nM | 13 nM | 1.1 nM | Fc1ccc2[nH]cc(CCCN3CCN(c4ccccc4-c4ccccc4)CC3)c2c1 | > 90% | > 90% | > 90% | – | – | –
31 nM | 62 nM | 12 nM | Fc1cccc(-c2cc(F)ccc2N2CCN(CCCc3c[nH]c4ccc(F)cc34)CC2)c1 | > 90% | > 90% | > 90% | 24.4 µL/min/mg | 56.8 min | Activity (Mus musculus [9]): 37%; Activity (Mus musculus [10]): 21%; Activity (Mus musculus [11]): 18%; Activity (Mus musculus [12]): Dose-dependent effect
– | – | – | N#Cc1ccc(-c2ccccc2N2CCN(CCc3c[nH]c4ccc(F)cc34)CC2)cc1 | 84.2% | 99.5% | 97.3% | – | – | –
– | – | – | COc1ccc(C(CN(C)C)C2(O)CCCCC2)cc1 (stereo not given) [VENLAFAXINE] | – | – | – | – | – | Activity (Mus musculus [13]): 35%
210 nM | – | – | c1ccc(-c2ccccc2N2CCN(CCc3coc4ccccc34)CC2)cc1 | > 90% | 99.5% | 102% | – | – | –
42 nM | 8.1 nM | 1.1 nM | Fc1cccc(-c2ccccc2N2CCN(CCCc3c[nH]c4ccc(F)cc34)CC2)c1 | > 90% | > 90% | > 90% | 50 µL/min/mg | 27.7 min | –
9.4 nM | 15 nM | 2.6 nM | Fc1cccc(-c2ccc(F)cc2N2CCN(CCCc3c[nH]c4ccc(F)cc34)CC2)c1 | > 90% | > 90% | > 90% | 48.1 µL/min/mg | 28.8 min | –
– | – | – | CSc1ccccc1N1CCN(CCc2coc3ccccc23)CC1 | 112% | 99.7% | 86.8% | – | – | –
10 nM | 18 nM | 0.55 nM | Fc1cccc(-c2c(F)cccc2N2CCN(CCCc3c[nH]c4ccc(F)cc34)CC2)c1 | > 90% | > 90% | > 90% | 51.5 µL/min/mg | 26.9 min | –
– | – | – | Fc1cc2c(c(OCCNCCCc3c[nH]c4ccc(F)cc34)c1)OCCC2 | – | – | – | – | – | Ki [5]: 0.47 nM
120 nM | – | – | Fc1cccc(-c2cc(F)ccc2N2CCN(CCCCc3c[nH]c4ccc(F)cc34)CC2)c1 | > 90% | 96% | 97.5% | – | – | –
– | – | – | Cc1ccc(Sc2ccccc2N2CCNCC2)c(C)c1 [VORTIOXETINE] | – | – | – | – | – | Activity (Mus musculus [9]): 48 - 52%
– | – | – | COc1ccc(-c2ccccc2N2CCN(CCc3c[nH]c4ccc(F)cc34)CC2)cc1 | 82.8% | 99.2% | 94.7% | – | – | –
– | – | – | c1ccc(-c2cccc(N3CCN(CCc4coc5ccccc45)CC3)c2)cc1 | 99.4% | 97.5% | 71.9% | – | – | –

SMILES | IC50 [2] | Ki [6] | Ki [7] | inhibition [1] | inhibition [3] | inhibition [4] | microsomal CLint at 1 µM [8] | half-life at 1 µM (in vitro) | further results
Fc1ccc2[nH]cc(CCN3CCN(c4ccccc4-c4ccccc4)CC3)c2c1 | 110 nM | 0.53 nM | 0.26 nM | > 90% | > 90% | > 90% | 226 µL/min/mg | 6.1 min | –
Fc1ccc2[nH]cc(CCN3CCN(c4ccccc4-c4ccccc4F)CC3)c2c1 | 96 nM | 25 nM | 2.3 nM | > 90% | > 90% | > 90% | 343 µL/min/mg | 4 min | –
Cc1ccc(-c2ccccc2N2CCN(CCc3c[nH]c4ccc(F)cc34)CC2)cc1 | 1700 nM | – | – | > 90% | 101% | 99.5% | – | – | –
Fc1ccc(-c2ccccc2N2CCN(CCc3c[nH]c4ccc(F)cc34)CC2)cc1 | 590 nM | – | – | > 90% | 101% | 94.9% | 144 µL/min/mg | 9.6 min | –
Cc1cccc(-c2ccccc2N2CCN(CCc3c[nH]c4ccc(F)cc34)CC2)c1 | 160 nM | – | – | > 90% | 98.1% | 97.3% | – | – | –
Fc1cccc(-c2ccccc2N2CCN(CCc3c[nH]c4ccc(F)cc34)CC2)c1 | 150 nM | 5.6 nM | 0.79 nM | > 90% | > 90% | 0.79% | 155 µL/min/mg | 9 min | –
N#Cc1ccc2[nH]cc(CCN3CCN(c4ccccc4-c4ccccc4)CC3)c2c1 | 190 nM | – | – | > 90% | 97.6% | 93.7% | – | – | –
